Test results reported in patent publication US4600780A, “N-cyano-formamidines” (Ferrer International, S.A., priority 1983, dated 1986).
Structures can show the parent of a compound that is named as a salt.

Target: T1, histamine H2 -receptors (Rattus norvegicus, UniProt P25102)
T1 construct: from tissue; host or cells: stomach of living anaesthetized Sprague-Dawley rats (in vivo perfusion)
Assay: Blocking activity of histamine H2-receptors: inhibition of histamine-induced perfusate pH decrease (gastric acid secretion) in perfused stomach of anaesthetized rats
Assay type: in vivo, Sprague-Dawley albino male rats
Settings: for ED50: rat, iv, anaesthetized rats, perfused stomach, histamine 0.325 μmols/kg/min, test drugs via femoral veins, read-out: ED50 (inhibition rate of maximal pH decrease in relation to initial pH); for times more active than Cimetidine, according to ED50 values: ratio of ED50 values to Cimetidine (Table 1)
Method: The blocking activity of histamine H2 -receptors was tested in Sprague-Dawley albino male rats weighing 350-450 g. Animals subject to 18-hour fasting were anaesthetized with urethane (1.5 g/kg i.p.), after which a longitudinal incision was performed on the abdominal wall, and pylorus and esophagus were cannulated for subject perfusion. In addition, femoral veins were cannulated for administration of test drugs and histamine solution.
The animals' stomachs were perfused with 1/8000N NaOH diluted solution at a rate of 2 ml/min. The perfusion liquid was then circulated through a 3 ml-volume chamber provided with a pH meter electrode. After calibrating the pH, histamine was perfused at 0.325 μmols/kg/min. The histamine perfusion caused a decrease of the perfusion liquid pH, which was inhibited by the compounds of the present invention.

T1 sequence (P25102 whole entry, the tested form may be a part): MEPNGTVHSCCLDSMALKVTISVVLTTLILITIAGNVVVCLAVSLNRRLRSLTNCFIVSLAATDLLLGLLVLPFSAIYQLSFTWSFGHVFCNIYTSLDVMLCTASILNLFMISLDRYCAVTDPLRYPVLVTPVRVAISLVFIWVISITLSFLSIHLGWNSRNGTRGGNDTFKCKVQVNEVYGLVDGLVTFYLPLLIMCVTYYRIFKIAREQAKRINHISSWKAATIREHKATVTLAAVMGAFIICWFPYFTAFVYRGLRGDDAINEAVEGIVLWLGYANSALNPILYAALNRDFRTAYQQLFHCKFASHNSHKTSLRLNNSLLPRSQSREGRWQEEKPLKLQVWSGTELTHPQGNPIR

Molecule `CN/C(=N/CCSCc1nc[nH]c1C)NC#N` [Cimetidine, reference compound] has an ED50 of 5.6 µmol/kg.

In the case of `N#CN=CNCCSCc1csc(NC(=N)N)n1` [Example 3, N-cyano-N'-[2-[[[2-[(aminoiminomethyl)amino]-4-thiazolyl]methyl]thio]ethyl]formamidine maleate acid], the ED50 is reported as 2.17 µmol/kg and the “times more active than Cimetidine, according to ED50 values” is reported as 2.6 times.

`N#CN=CNCCCOc1cccc(CN2CCCCC2)c1` [Example 4, N-cyano-N'-[3-[3-(1-piperidinylmethyl)phenoxy]propyl]formamidine hydrochloride] was tested, and the ED50 was 3.2 µmol/kg and the “times more active than Cimetidine, according to ED50 values” was 1.8 times.
